This note sets out measurements from PubChem BioAssay AID1918994 (Molecular Pharmacology Branch, DTP, NCI, 2023).

Values joined by “and” are separate entries in the source; they are usually repeats but may differ in a detail not shown here. Identical values can stand only once.

The subject of the assay is 292921-168-R-J2-PDC complex spheroid growth. The experiment in a line: Anticancer human tumor 292921-168-R-J2-PDC patient-derived pancreatic carcinoma cell line growth inhibition [AhR]. The note with it: for viability, T/C: stronger effect = lower value. The method in brief: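 Spheroids combined tumor cells with HUVEC endothelial cells and human MSCs as stroma. AhR antagonists were paired with standard or investigational drugs, each dosed in half-log steps down from near clinical Cmax, or from 10 microM where Cmax was unknown.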

Where [1] appears, read: curve of first compound, second compound 0.1 µM.
Setting [2] is: curve of first compound, second compound 0.316 µM.
The mark [3] stands for this setting: curve of first compound, second compound 1 µM.
The mark [4] stands for this setting: curve of first compound, second compound 3.16 µM.
The mark [5] stands for this setting: curve of first compound, second compound 10 µM.
[6] abbreviates: second compound 0.1 µM, first compound 0.00949 µM.
Where [7] appears, read: second compound 0.1 µM, first compound 0.03 µM.
Where [8] appears, read: second compound 0.1 µM, first compound 0.0949 µM.
[9] abbreviates: second compound 0.1 µM, first compound 0.3 µM.
Setting [10] is: second compound 0.316 µM, first compound 0.00949 µM.
The mark [11] stands for this setting: second compound 0.316 µM, first compound 0.03 µM.
Where [12] appears, read: second compound 0.316 µM, first compound 0.0949 µM.
Setting [13] is: second compound 0.316 µM, first compound 0.3 µM.
The mark [14] stands for this setting: second compound 1 µM, first compound 0.00949 µM.
Setting [15] is: second compound 1 µM, first compound 0.03 µM.
[16] abbreviates: second compound 1 µM, first compound 0.0949 µM.
The mark [17] stands for this setting: second compound 1 µM, first compound 0.3 µM.
The mark [18] stands for this setting: second compound 3.16 µM, first compound 0.00949 µM.
Setting [19] is: second compound 3.16 µM, first compound 0.03 µM.
Setting [20] is: second compound 3.16 µM, first compound 0.0949 µM.
Setting [21] is: second compound 3.16 µM, first compound 0.3 µM.
[22] abbreviates: second compound 10 µM, first compound 0.00949 µM.
[23] abbreviates: second compound 10 µM, first compound 0.03 µM.
The mark [24] stands for this setting: second compound 10 µM, first compound 0.0949 µM.
Where [25] appears, read: second compound 10 µM, first compound 0.3 µM.
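Further: spheroids exposed to compounds for seven days after three days of growth.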

Consider `CC1(C)CCC(CN2CCN(c3ccc(C(=O)NS(=O)(=O)c4ccc(NCC5CCOCC5)c([N+](=O)[O-])c4)c(Oc4cnc5[nH]ccc5c4)c3)CC2)=C(c2ccc(Cl)cc2)C1`, for which the viability, T/C (usually the result in the treated group divided by that in the control group, in per cent) (compound 0.0316 µM) was 104% and 92.6% and 102%; the viability, T/C (compound 0.1 µM) is 106% and 105% and 104%; the viability, T/C (compound 0.316 µM) was 108% and 109% and 97.2%; the viability, T/C (compound 1 µM) is 106% and 116% and 102%; the viability, T/C (compound 3.16 µM) was 102% and 109% and 94%; the viability, T/C (compound 10 µM) is 22.7% and 18.6% and 22.2%. Besides, the half-inhibitory concentration (IC50) (as a rule, the concentration at which inhibition is half-maximal) (curve of compound) is 6730 nM and 6620 nM and 6410 nM.

`O=C(C=Cn1cnc(-c2cc(C(F)(F)F)cc(C(F)(F)F)c2)n1)NNc1cnccn1`: the viability, T/C reads like this: (compound 0.00949 µM) 104% and 95% and 86.6%; (compound 0.03 µM) 97.2% and 93% and 80.9%; (compound 0.0949 µM) 64.4% and 58.7% and 54.5%; (compound 0.3 µM) 39.5% and 34.5% and 32.4%; (compound 0.949 µM) 25.6% and 18.9% and 22.2%; (compound 3 µM) 15.2% and 10.5% and 13.3%. Besides, the half-inhibitory concentration (IC50) (curve of compound) is 191 nM and 154 nM and 129 nM.

As for `COc1cc(Nc2ncc3c(n2)-c2ccc(Cl)cc2C(c2c(F)cccc2OC)=NC3)ccc1C(=O)O`, the viability, T/C reads like this: (compound 0.0316 µM) 53.9% and 45.2% and 56.9%; (compound 0.1 µM) 49.2% and 45% and 39.5%; (compound 0.316 µM) 49.9% and 53.6% and 45.8%; (compound 1 µM) 57.9% and 51.2% and 43%; (compound 3.16 µM) 49.8% and 40.5% and 41.5%; (compound 10 µM) 41.7% and 31.2% and 30.7%.

Take `CC(CO)NC(=O)c1cc(-c2ccc(Cl)cc2)nn(-c2cnn(C)c2)c1=O` (stereo unspecified): the viability, T/C is 102% [middle of 21 runs] (compound 0.1 µM); 98.8% [middle of 21 runs] (compound 0.316 µM); 99.2% [middle of 20 runs] (compound 1 µM); 88.8% [middle of 19 runs] (compound 3.16 µM); 70.5% [middle of 19 runs] (compound 10 µM). Besides, for the setting “compound alone, run of 05/31/2022”, the IC50 was above 10000 nM.

With `Nc1ncn(C2CC(O)C(CO)S2)c(=O)n1` (stereo unspecified) + Cc1ccccc1N=Nc1ccc(NC(=O)c2ccnn2C)c(C)c1, the half-inhibitory concentration (IC50) under setting [1] is above 300 nM; the IC50 under setting [2] was above 300 nM; the 50% inhibitory concentration (IC50) under setting [3] was above 300 nM; the half-maximal inhibitory concentration (IC50) under setting [4] is above 300 nM; the IC50 under setting [5] was above 300 nM. For the same compound, the viability, T/C is 96.1% (second compound 0.1 µM, first compound 0.000949 µM); 91.2% (second compound 0.1 µM, first compound 0.003 µM); 86.3% under setting [6]; 93% under setting [7]; 91.1% under setting [8]; 77.5% under setting [9]. In addition, the viability, T/C is 87.6% (second compound 0.316 µM, first compound 0.000949 µM); 92.3% (second compound 0.316 µM, first compound 0.003 µM); 93.3% under setting [10]; 81.5% under setting [11]; 82.6% under setting [12]; 76.6% under setting [13]. Moreover, the viability, T/C is, setting by setting: (second compound 1 µM, first compound 0.000949 µM) 83.6%; (second compound 1 µM, first compound 0.003 µM) 85%; under setting [14], 80.7%; under setting [15], 83.8%; under setting [16], 90%; under setting [17], 78.5%. In addition, the viability, T/C was 68.6% (second compound 3.16 µM, first compound 0.000949 µM); 66.1% (second compound 3.16 µM, first compound 0.003 µM); 72.4% under setting [18]; 79.9% under setting [19]; 82.2% under setting [20]; 64.1% under setting [21]. The viability, T/C is, setting by setting: (second compound 10 µM, first compound 0.000949 µM) 64%; (second compound 10 µM, first compound 0.003 µM) 56.1%; under setting [22], 59%; under setting [23], 62.7%; under setting [24], 61.6%; under setting [25], 57.1%.

On to `CCN(c1cc(-c2ccc(CN3CCOCC3)cc2)cc(C(=O)NCc2c(C)cc(C)[nH]c2=O)c1C)C1CCOCC1` + Cc1cncc(-c2nc(NCCc3c[nH]c4ccccc34)c3ncn(C(C)C)c3n2)c1, for which the IC50 reads like this: under setting [1], above 3000 nM; under setting [2], above 3000 nM; under setting [3], above 3000 nM; under setting [4], above 3000 nM; under setting [5], 34 nM. Further, the viability, T/C is, setting by setting: under setting [6], 93.8%; under setting [7], 94.5%; under setting [8], 92.7%; under setting [9], 84.9%; (second compound 0.1 µM, first compound 0.949 µM) 82.7%; (second compound 0.1 µM, first compound 3 µM) 67.3%. Moreover, the viability, T/C under setting [10] is 94.7%; the viability, T/C under setting [11] was 91.1%; the viability, T/C under setting [12] is 90%; the viability, T/C under setting [13] is 77.6%; the viability, T/C (second compound 0.316 µM, first compound 0.949 µM) is 78.5%; the viability, T/C (second compound 0.316 µM, first compound 3 µM) was 83.3%. The viability, T/C runs as follows: under setting [14], 87.2%; under setting [15], 88.8%; under setting [16], 84.9%; under setting [17], 76.4%; (second compound 1 µM, first compound 0.949 µM) 75.4%; (second compound 1 µM, first compound 3 µM) 75.8%. For the same compound, the viability, T/C is 64.4% under setting [18]; 66.7% under setting [19]; 73.2% under setting [20]; 64.2% under setting [21]; 62.8% (second compound 3.16 µM, first compound 0.949 µM); 52.7% (second compound 3.16 µM, first compound 3 µM). Moreover, the viability, T/C was 49.2% under setting [22]; 49.6% under setting [23]; 52.7% under setting [24]; 49.3% under setting [25]; 41.1% (second compound 10 µM, first compound 0.949 µM); 45.3% (second compound 10 µM, first compound 3 µM).
